Test results: ChEMBL document CHEMBL4431314, “Computer-aided drug design guided by hydrogen/deuterium exchange mass spectrometry: A powerful combination for the development of potent and selective inhibitors of Group VIA calcium-independent phospholipase A2” (Bioorg Med Chem, 2016)

molecular target: T1, Cytosolic phospholipase A2 (Homo sapiens) (UniProt P47712); test: Inhibition of C-terminal 6xHis-tagged human group IVA cytosolic PLA2 expressed in fall armyworm sf9 cells using PAPC/arachidonyl-1-14C PAPC as substrate by mixed micelle modified Dole assay
T1 sequence (whole entry): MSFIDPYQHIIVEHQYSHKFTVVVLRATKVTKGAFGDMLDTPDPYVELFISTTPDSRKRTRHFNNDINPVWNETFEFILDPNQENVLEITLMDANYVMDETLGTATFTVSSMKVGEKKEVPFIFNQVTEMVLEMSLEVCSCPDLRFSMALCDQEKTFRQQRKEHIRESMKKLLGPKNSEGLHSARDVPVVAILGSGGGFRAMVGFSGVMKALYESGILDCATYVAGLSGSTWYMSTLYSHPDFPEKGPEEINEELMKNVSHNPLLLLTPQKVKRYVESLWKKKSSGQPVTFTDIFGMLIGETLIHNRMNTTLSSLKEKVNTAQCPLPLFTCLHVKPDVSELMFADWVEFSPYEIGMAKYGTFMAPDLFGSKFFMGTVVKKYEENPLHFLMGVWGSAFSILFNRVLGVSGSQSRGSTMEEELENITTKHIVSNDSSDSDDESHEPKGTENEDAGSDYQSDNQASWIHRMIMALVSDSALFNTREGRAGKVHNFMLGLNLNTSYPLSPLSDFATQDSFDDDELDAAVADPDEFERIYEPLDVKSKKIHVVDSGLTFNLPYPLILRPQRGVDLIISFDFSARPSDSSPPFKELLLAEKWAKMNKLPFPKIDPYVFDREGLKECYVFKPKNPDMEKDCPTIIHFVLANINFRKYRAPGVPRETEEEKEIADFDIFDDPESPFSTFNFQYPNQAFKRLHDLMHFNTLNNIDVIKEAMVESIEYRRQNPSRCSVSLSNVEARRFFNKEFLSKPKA

Compared with `CCCCCCCCCCSCC(=O)C(F)(F)F`, `CCCCCCCCCCCSCC(=O)C(F)(F)F` is higher in XI50 (mole fraction): 0.008 for the first, 0.014 for the second.

molecular target: T2, 85/88 kDa calcium-independent phospholipase A2 (Homo sapiens) (UniProt O60733); test: Binding affinity to Group VIA calcium-independent PLA2 (unknown origin) (542 to 562 residues) assessed as change in average deuteration level preincubated for 30 mins followed by D2O addition measured after 10 to 10000 secs by DXMS analysis
T2 sequence (whole entry): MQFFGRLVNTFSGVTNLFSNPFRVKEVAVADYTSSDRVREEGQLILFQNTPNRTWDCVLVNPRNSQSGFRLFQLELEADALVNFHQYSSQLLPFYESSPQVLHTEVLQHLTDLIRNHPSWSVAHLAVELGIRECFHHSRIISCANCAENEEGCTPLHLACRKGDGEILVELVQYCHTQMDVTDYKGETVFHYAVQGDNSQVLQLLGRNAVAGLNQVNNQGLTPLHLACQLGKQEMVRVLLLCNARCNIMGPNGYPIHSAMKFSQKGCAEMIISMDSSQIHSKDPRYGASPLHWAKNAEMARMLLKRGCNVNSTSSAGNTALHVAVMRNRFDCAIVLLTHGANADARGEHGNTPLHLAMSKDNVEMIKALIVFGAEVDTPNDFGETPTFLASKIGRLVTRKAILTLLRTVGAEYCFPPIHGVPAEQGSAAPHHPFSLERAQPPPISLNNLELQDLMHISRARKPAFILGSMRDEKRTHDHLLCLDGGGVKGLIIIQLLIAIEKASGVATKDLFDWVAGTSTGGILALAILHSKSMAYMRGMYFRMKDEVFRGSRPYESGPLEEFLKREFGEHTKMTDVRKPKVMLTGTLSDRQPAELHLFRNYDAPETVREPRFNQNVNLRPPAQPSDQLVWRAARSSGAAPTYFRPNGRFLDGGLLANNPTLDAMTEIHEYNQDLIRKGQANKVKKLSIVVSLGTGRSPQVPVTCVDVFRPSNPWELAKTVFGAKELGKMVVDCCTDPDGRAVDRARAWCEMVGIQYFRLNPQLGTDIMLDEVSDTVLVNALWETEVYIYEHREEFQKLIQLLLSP

For `CCCCCCCCSCC(=O)C(F)(F)F`, the Activity was 18%.

molecular target: T2, 85/88 kDa calcium-independent phospholipase A2 (Homo sapiens); test: Inhibition of N-terminal 6xHis-tag human group VIA calcium-independent PLA2 expressed in fall armyworm sf9 cells at 0.091 mol fraction using PAPC/arachidonyl-1-14C PAPC as substrate by mixed micelle modified Dole assay

Going from `Cc1ccc(SCC(=O)C(F)(F)F)cc1` to `O=C(CSc1ccc(Br)cc1)C(F)(F)F`, the inhibition rises from 95% to 97%.

First: CCCCCCCCCCSCC(=O)C(F)(F)F
Second: CCCCCCCCCCCSCC(=O)C(F)(F)F
The inhibition of the first is higher: 99% for the first, 98% for the second.

First: CCCCCCCCCCCCSCC(=O)C(F)(F)F
Second: CCCCCCCCSCC(=O)C(F)(F)F
The inhibition of the first is lower: 97% for the first, 99% for the second.

`CCCCCCSCC(=O)C(F)(F)F` and `CCCCCCOCC(=O)C(F)(F)F` are the same in inhibition: 99% for the first, 99% for the second.

Compared with `CCCCCCS(=O)(=O)CC(O)C(F)(F)F` (stereo not drawn), `CCCCCCCCCCCCS(=O)(=O)CC(O)(O)C(F)(F)F` is higher in inhibition: 15% for the first, 52% for the second.

First: O=C(CSc1c(Cl)cccc1Cl)C(F)(F)F
Second: O=C(CSCCc1ccccc1)C(F)(F)F
The inhibition of the first is lower: 99% for the first, 100% for the second.

With `O=C(c1ccc(C2CCCCC2)s1)C(F)(F)F` the inhibition was 39%.

`Cc1ccc(SCC(=O)C(F)(F)F)cc1` and `O=C(CSc1ccc(Br)cc1)C(F)(F)F` are within 0.2 log units of each other in pXI50: 2.1 for the first, 2.2 for the second.

First: CCCCCCCCCCSCC(=O)C(F)(F)F
Second: CCCCCCCCCCCSCC(=O)C(F)(F)F
The pXI50 of the first is higher: 3.4 for the first, 3.2 for the second.

Compared with `CCCCCCCCCCCCSCC(=O)C(F)(F)F`, `CCCCCCCCSCC(=O)C(F)(F)F` is higher in pXI50: 2.4 for the first, 3.7 for the second.

Going from `CCCCCCSCC(=O)C(F)(F)F` to `CCCCCCOCC(=O)C(F)(F)F`, the pXI50 falls from 3.3 to 2.2.

First: O=C(CSc1c(Cl)cccc1Cl)C(F)(F)F
Second: O=C(CSCCc1ccccc1)C(F)(F)F
The pXI50 of the first is lower: 2.3 for the first, 3.2 for the second.

molecular target: T2, 85/88 kDa calcium-independent phospholipase A2 (Homo sapiens); test: Binding affinity to Group VIA calcium-independent PLA2 (unknown origin) (514 to 524 residues) assessed as change in average deuteration level preincubated for 30 mins followed by D2O addition measured after 10 to 10000 secs by DXMS analysis

With `CCCCCCCCSCC(=O)C(F)(F)F` the Activity was 13%.

molecular target: T2, 85/88 kDa calcium-independent phospholipase A2 (Homo sapiens); test: Binding affinity to Group VIA calcium-independent PLA2 (unknown origin) (718 to 730 residues) assessed as change in average deuteration level preincubated for 30 mins followed by D2O addition measured after 10 to 10000 secs by DXMS analysis

For `CCCCCCCCSCC(=O)C(F)(F)F`, the Activity was 13%.

molecular target: T2, 85/88 kDa calcium-independent phospholipase A2 (Homo sapiens); test: Competitive-reversible inhibition of N-terminal 6xHis-tag human group VIA calcium-independent PLA2 expressed in fall armyworm sf9 cells using PAPC/arachidonyl-1-14C PAPC as substrate by mixed micelle modified Dole assay

In the case of `CCCCCCCCSCC(=O)C(F)(F)F`, the XI50 (mole fraction) is reported as 0.0002.

molecular target: T2, 85/88 kDa calcium-independent phospholipase A2 (Homo sapiens); test: Inhibition of N-terminal 6xHis-tag human group VIA calcium-independent PLA2 expressed in fall armyworm sf9 cells using PAPC/arachidonyl-1-14C PAPC as substrate by mixed micelle modified Dole assay

Going from `Cc1ccc(SCC(=O)C(F)(F)F)cc1` to `O=C(CSc1ccc(Br)cc1)C(F)(F)F`, the XI50 (mole fraction) falls from 0.009 to 0.0071.

Going from `CCCCCCCCCCSCC(=O)C(F)(F)F` to `CCCCCCCCCCCSCC(=O)C(F)(F)F`, the XI50 (mole fraction) rises from 0.00041 to 0.0007.

Compared with `CCCCCCCCCCCCSCC(=O)C(F)(F)F`, `CCCCCCSCC(=O)C(F)(F)F` is lower in XI50 (mole fraction): 0.0043 for the first, 0.00052 for the second.

Compared with `O=C(CSc1c(Cl)cccc1Cl)C(F)(F)F`, `O=C(CSCCc1ccccc1)C(F)(F)F` is lower in XI50 (mole fraction): 0.0049 for the first, 0.00059 for the second.

Work on `CCCCCCOCC(=O)C(F)(F)F` yielded an XI50 (mole fraction) of 0.006.

molecular target: T2, 85/88 kDa calcium-independent phospholipase A2 (Homo sapiens); test: Binding affinity to Group VIA calcium-independent PLA2 (unknown origin) (481 to 493 residues) assessed as change in average deuteration level preincubated for 30 mins followed by D2O addition measured after 10 to 10000 secs by DXMS analysis

`CCCCCCCCSCC(=O)C(F)(F)F` gave an Activity of 16%.

molecular target: T2, 85/88 kDa calcium-independent phospholipase A2 (Homo sapiens); test: Binding affinity to Group VIA calcium-independent PLA2 (unknown origin) (630 to 655 residues) assessed as change in average deuteration level preincubated for 30 mins followed by D2O addition measured after 10 to 10000 secs by DXMS analysis

Compound `CCCCCCCCSCC(=O)C(F)(F)F` has an Activity of 12%.

molecular target: T2, 85/88 kDa calcium-independent phospholipase A2 (Homo sapiens); test: Binding affinity to Group VIA calcium-independent PLA2 (unknown origin) (656 to 664 residues) assessed as change in average deuteration level preincubated for 30 mins followed by D2O addition measured after 10 to 10000 secs by DXMS analysis

With `CCCCCCCCSCC(=O)C(F)(F)F` the Activity was 12%.

molecular target: T1, Cytosolic phospholipase A2 (Homo sapiens); test: Inhibition of C-terminal 6xHis-tagged human group IVA cytosolic PLA2 expressed in fall armyworm sf9 cells at 0.091 mol fraction using PAPC/arachidonyl-1-14C PAPC as substrate by mixed micelle modified Dole assay

Compared with `Cc1ccc(SCC(=O)C(F)(F)F)cc1`, `O=C(CSc1ccc(Br)cc1)C(F)(F)F` is higher in inhibition: 61% for the first, 82% for the second.

Compared with `CCCCCCCCCCSCC(=O)C(F)(F)F`, `CCCCCCCCCCCSCC(=O)C(F)(F)F` is lower in inhibition: 100% for the first, 98% for the second.

Going from `CCCCCCCCCCCCSCC(=O)C(F)(F)F` to `CCCCCCCCSCC(=O)C(F)(F)F`, the inhibition falls from 83% to 82%.

Going from `CCCCCCSCC(=O)C(F)(F)F` to `CCCCCCOCC(=O)C(F)(F)F`, the inhibition falls from 77% to 76%.

First: CCCCCCS(=O)(=O)CC(O)C(F)(F)F (stereo not drawn)
Second: CCCCCCCCCCCCS(=O)(=O)CC(O)(O)C(F)(F)F
The inhibition of the first is lower: 5% for the first, 34% for the second.

Going from `O=C(CSc1c(Cl)cccc1Cl)C(F)(F)F` to `O=C(CSCCc1ccccc1)C(F)(F)F`, the inhibition rises from 91% to 92%.

`O=C(c1ccc(C2CCCCC2)s1)C(F)(F)F` was tested, and the inhibition was 60%.

molecular target: T2, 85/88 kDa calcium-independent phospholipase A2 (Homo sapiens); test: Binding affinity to Group VIA calcium-independent PLA2 (unknown origin) (770 to 778 residues) assessed as change in average deuteration level preincubated for 30 mins followed by D2O addition measured after 10 to 10000 secs by DXMS analysis

`CCCCCCCCSCC(=O)C(F)(F)F` gave an Activity of 20%.

species on record: Homo sapiens; test: Inhibition of His-tagged human group V human secretory PLA2 expressed in Escherichia coli BL21 cells at 0.091 mol fraction using PAPC/arachidonyl-1-14C PAPC as substrate by mixed micelle modified Dole assay

Compared with `Cc1ccc(SCC(=O)C(F)(F)F)cc1`, `O=C(CSc1ccc(Br)cc1)C(F)(F)F` is higher in inhibition: 18% for the first, 35% for the second.

Compared with `CCCCCCCCCCSCC(=O)C(F)(F)F`, `CCCCCCCCCCCSCC(=O)C(F)(F)F` is lower in inhibition: 78% for the first, 73% for the second.

Compared with `CCCCCCCCCCCCSCC(=O)C(F)(F)F`, `CCCCCCCCSCC(=O)C(F)(F)F` is lower in inhibition: 87% for the first, 68% for the second.

First: CCCCCCSCC(=O)C(F)(F)F
Second: CCCCCCOCC(=O)C(F)(F)F
The inhibition of the first is lower: 33% for the first, 35% for the second.

Going from `CCCCCCS(=O)(=O)CC(O)C(F)(F)F` (stereo not drawn) to `CCCCCCCCCCCCS(=O)(=O)CC(O)(O)C(F)(F)F`, the inhibition rises from 16% to 44%.

First: O=C(CSc1c(Cl)cccc1Cl)C(F)(F)F
Second: O=C(CSCCc1ccccc1)C(F)(F)F
The inhibition of the first is lower: 43% for the first, 61% for the second.

`O=C(c1ccc(C2CCCCC2)s1)C(F)(F)F` showed an inhibition of 66%.
